Results taken from patent US10092003B2, “Insect control device and associated methods” (Novel Textiles & Treatments LLC, priority 2014, dated 2018).

Assay: Transfluthrin evaporation / release rate from loaded fabric substrates (aging, acetone extraction, GC-MS)
Format: physicochemical
Text: In some cases, release rates of the pyrethroids may range between about 0.1 milligrams per hour and about 3 milligrams per hour, as measured by gas chromatography mass spectroscopy (GC-MS). In some embodiments, the release rate may range between about 0.1 milligrams per hour and about 3 milligrams per hour, between about 0.5 milligrams per hour and about 3 milligrams per hour, or between about 1 milligrams per hour and about 3 milligrams per hour for an overall device of the invention, as measured by GC-MS. Other release rates are also possible. The release rate of the pyrethroid may be determined, for example, by immersing a loaded substrate in a suitable solvent (e.g., acetone) and sonicating. The substrate may then be rinsed and the solvent containing the released pyrethroid is collected. […]
Fabric samples comprised of cellulose or glass were prepared with Transfluthrin using either a wet application, or a wet application followed by a dry application, as described herein. […] The amount of Transfluthrin in the extracted sample was measured using a Restel Rtx®-5MS gas chromatography—mass spectrometry column. […] Evaporation rates, as determined by solvent extraction of Transfluthrin and followed by GC-MS as described previously, for cellulose fabric wet application and wet-and-dry application samples (Samples A and B in Table 1) are plotted in FIG. 3A and FIG. 3B, respectively. […]

SMILES: CC1(C)[C@H](C=C(Cl)Cl)[C@H]1C(=O)OCc1c(F)c(F)cc(F)c1F [transfluthrin, Transfluthrin]
- evaporation rate (combination of particle size distributions on 5″×4″ square fabric of cellulose): 0.5 mg per 21 days
- evaporation rate (on an equivalent 20″×20″ cellulose fabric): 10 mg per 21 days
